Data as given in ChEMBL document CHEMBL1201862, “PubChem BioAssay data set” (2004).
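These data come from cells grown in 96-well plates and exposed to compound for 48 hours at five concentrations. GI50 marks 50% less growth.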 The source made the active and inactive calls. Rule as the data show it: active = GI50 up to about 1.1 µM and inactive = higher.

Tests used:
Assay in all cases: NCI-60 cell line screen, 48 h
786-0 = system: 786-0
A498 = system: A498
A549 = system: A549
ACHN = system: ACHN
BT-549 = system: BT-549
CAKI-1 = system: CAKI-1
COLO 205 = system: COLO 205
DU-145 = system: DU-145
EKVX = system: EKVX
HCC 2998 = system: HCC 2998
HCT-116 = system: HCT-116
HCT-15 = system: HCT-15
HL-60 = system: HL-60
HOP-62 = system: HOP-62
HOP-92 = system: HOP-92
HT-29 = system: HT-29
Hs-578T = system: Hs-578T
IGROV-1 = system: IGROV-1
K562 = system: K562
KM12 = system: KM12
LOX IMVI = system: LOX IMVI
M14 = system: M14
MCF7 = system: MCF7
MDA-MB-231 = system: MDA-MB-231
MDA-MB-435 = system: MDA-MB-435
MOLT-4 = system: MOLT-4
Malme-3M = system: Malme-3M
NCI-H226 = system: NCI-H226
NCI-H23 = system: NCI-H23
NCI-H460 = system: NCI-H460
NCI-H522 = system: NCI-H522
NCI/ADR-RES = system: NCI/ADR-RES
OVCAR-3 = system: OVCAR-3
OVCAR-4 = system: OVCAR-4
OVCAR-5 = system: OVCAR-5
OVCAR-8 = system: OVCAR-8
PC-3 = system: PC-3
RPMI-8226 = system: RPMI-8226
RXF 393 = system: RXF 393
SF-268 = system: SF-268
SF-295 = system: SF-295
SF-539 = system: SF-539
SK-MEL-28 = system: SK-MEL-28
SK-MEL-2 = system: SK-MEL-2
SK-MEL-5 = system: SK-MEL-5
SK-OV-3 = system: SK-OV-3
SN12C = system: SN12C
SNB-19 = system: SNB-19
SNB-75 = system: SNB-75
SW-620 = system: SW-620
T47D = system: T47D
TK-10 = system: TK-10
U-251 = system: U-251
UACC-257 = system: UACC-257
UACC-62 = system: UACC-62
UO-31 = system: UO-31

O=C(O)C(F)(OC(F)(F)C(F)(F)C(F)(F)F)C(F)(F)F (stereo unspecified)
GI50 (786-0): > 100 µM (inactive) | GI50 (A498): > 100 µM (inactive) | GI50 (A549): > 100 µM (inactive) | GI50 (ACHN): > 100 µM (inactive) | GI50 (BT-549): > 100 µM (inactive) | GI50 (CAKI-1): > 100 µM (inactive) | GI50 (COLO 205): > 100 µM (inactive) | GI50 (DU-145): > 100 µM (inactive) | GI50 (EKVX): > 100 µM (inactive) | GI50 (HCC 2998): > 100 µM (inactive) | GI50 (HCT-116): > 100 µM (inactive) | GI50 (HCT-15): > 100 µM | GI50 (HL-60): > 100 µM (inactive) | GI50 (HOP-62): > 100 µM (inactive) | GI50 (HOP-92): > 100 µM (inactive) | GI50 (HT-29): > 100 µM (inactive) | GI50 (Hs-578T): > 100 µM (inactive) | GI50 (IGROV-1): > 100 µM (inactive) | GI50 (K562): > 100 µM (inactive) | GI50 (KM12): > 100 µM (inactive) | GI50 (LOX IMVI): > 100 µM (inactive) | GI50 (M14): > 100 µM (inactive) | GI50 (MCF7): > 100 µM (inactive) | GI50 (MDA-MB-231): > 100 µM (inactive) | GI50 (MDA-MB-435): > 100 µM (inactive) | GI50 (MOLT-4): > 100 µM (inactive) | GI50 (Malme-3M): > 100 µM (inactive) | GI50 (NCI-H226): > 100 µM (inactive) | GI50 (NCI-H23): > 100 µM (inactive) | GI50 (NCI-H460): > 100 µM (inactive) | GI50 (NCI-H522): > 100 µM (inactive) | GI50 (NCI/ADR-RES): > 100 µM (inactive) | GI50 (OVCAR-3): > 100 µM (inactive) | GI50 (OVCAR-4): > 100 µM (inactive) | GI50 (OVCAR-5): > 100 µM (inactive) | GI50 (OVCAR-8): > 100 µM (inactive) | GI50 (PC-3): > 100 µM (inactive) | GI50 (RPMI-8226): > 100 µM (inactive) | GI50 (RXF 393): > 100 µM (inactive) | GI50 (SF-268): > 100 µM (inactive) | GI50 (SF-295): > 100 µM (inactive) | GI50 (SF-539): > 100 µM (inactive) | GI50 (SK-MEL-28): > 100 µM (inactive) | GI50 (SK-MEL-2): > 100 µM (inactive) | GI50 (SK-MEL-5): > 100 µM (inactive) | GI50 (SK-OV-3): > 100 µM (inactive) | GI50 (SN12C): > 100 µM (inactive) | GI50 (SNB-19): > 100 µM (inactive) | GI50 (SNB-75): > 100 µM (inactive) | GI50 (SW-620): > 100 µM (inactive) | GI50 (T47D): > 100 µM (inactive) | GI50 (TK-10): > 100 µM (inactive) | GI50 (U-251): > 100 µM (inactive) | GI50 (UACC-257): > 100 µM (inactive) | GI50 (UACC-62): > 100 µM (inactive) | GI50 (UO-31): > 100 µM (inactive)
